Laboratory results from EP0569598A1, “BENZOXAZINONE DERIVATIVE” (JAPAN TOBACCO INC., priority 1991, dated 1993).

Assays:
[1] = biological target: T1, human leukocyte elastase (HLE) (Homo sapiens, UniProt P08246); assay: HLE inhibitory activity (synthetic substrate, pNA release, absorbance 405 nm); format: biochemical; conditions: pH 8.6; HLE 5.63 nM, substrate 0.2625 mM; 37°C; read-out: IC₅₀ value HLE
T1 construct: the mixed solution was subjected to density gradient centrifugation, thereby obtaining neutrophiles; from tissue; host or cells: neutrophils from human vein blood (buffy coat)
T1 sequence (P08246 30-247 limits assumed): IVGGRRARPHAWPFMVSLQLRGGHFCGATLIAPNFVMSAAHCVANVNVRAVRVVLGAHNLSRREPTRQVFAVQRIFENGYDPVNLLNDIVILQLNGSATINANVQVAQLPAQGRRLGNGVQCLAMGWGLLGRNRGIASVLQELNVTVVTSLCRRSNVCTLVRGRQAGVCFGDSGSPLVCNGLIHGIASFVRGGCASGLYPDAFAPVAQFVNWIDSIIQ
Description: (§1) Activities of the Benzoxazine derivatives of the present invention against human leukocyte elastase (HLE), human sputum elastase (HSE), human cathepsin G (HCG), bovine pancreatic α-chmotrypsin (CYT) and bovine pancreatic trypsin (TRY) were measured by the following method.
A buffy coat was obtained by subjecting human vein blood to centrifugation. To the buffy coat was added distilled water to make a hypotonic solution, thereby bursting erythrocytes. To the residual blood cell component was added a 33.4% of Conrey 400 solution/9% Ficoll solution (the ratio of the former solution to the latter solution is 10:24), and the mixed solution was subjected to density gradient centrifugation, thereby obtaining neutrophiles. The neutrophile fraction was washed with Hanks' buffer for three times and then cells were recovered and cryopreserved at -80°C until use. The cryopreserved-cells were thawed with warm water at 37°C and suspended in a 9-fold volume of lysis buffer containing 0.1M Tris-HCl (pH7.5), 1M MgCl₂ and 0.1% Brij 35. The suspended cells are destroyed by means of polotoron with ice-cooling. The cell suspension was subjected to centrifugation at 100,000 x g for 1 hour. After removing precipitates, 2-fold volume of a Tris-HCl buffer containing 5 mM Tris-HCl(pH 7.5), 1M NaCl and 1.1% Brij 35 was added to the supernatant, thereby obtaining a crude solution of an enzyme extract. The crude solution was subjected to aprotinine affinity column and extracted with an elution buffer containing […] of glycine-HCl (pH 3.3), 1M NaCl and 0.1% Brij 35, thereby obtaining an active fraction. The obtained active fraction was further subjected to MONO S-ion-exchange chromatography and eluted with 2M NaCl linear gradient. The obtained fraction was dialyzed against 25 mM Tris-HCl (pH8.6) and lyophilized, thereby obtained an enzyme sample.
(§2) A test compound was dissolved in DMSO (for fluorometry) and prepared various concentration of the solution. To each concentration was added 2-fold volume of 0.2M Tris-HCl (pH8.6), thereby obtaining a test solution. Synthetic substrate (Funakoshi, L-1335) was dissolved in DMSO and 2-volume of 0.2M Tris-HCl (pH8.6) was added thereto, thereby obtaining a substrate solution. The reaction was performed using a microplate having 96 wells (Nunk). Six-time reactions were repeated for each concentration. One handred and forty µl of an enzyme solution containing 0.2M Tris-HCl (pH8.6), 30 µl of a test solution and 30 µl of a substrate solution per well of the microplate were respectively pre-incubated at 37°C for 10 minutes. After completion of the incubation, the enzyme solution was mixed with the test sample and incubated for 10 minutes and then the substrate solution was added to perform an enzyme reaction. The absorbance of released P-nitroanilide (PNA) was measured at the wave length of 405 nm by means of a microplate reader (MTP-100; CORONA), thereby determining the substrate decomposition. The rate of the substrate decomposition was shown as an average value of 6 repeated reactions. The inhibitory concentration of a test compound relative to the amount of the substrate decomposition in the reaction mixture without a test compound was regarded as an IC₅₀ value. The final concentration of HLE and a synthesized substrate in the reaction mixture were 5.63 nM and 0.2625 mM, respectively.

[2] = biological target: T2, human sputum elastase (HSE) (Homo sapiens, UniProt P08246); assay: HSE inhibitory activity (synthetic substrate, pNA release); format: biochemical; conditions: pH 7.0; HSE 10 nM, substrate 0.25 mM; read-out: IC₅₀ value HSE
T2 construct: human sputum elastase (HSE); purchased Sigma Inc
T2 sequence (P08246 30-267): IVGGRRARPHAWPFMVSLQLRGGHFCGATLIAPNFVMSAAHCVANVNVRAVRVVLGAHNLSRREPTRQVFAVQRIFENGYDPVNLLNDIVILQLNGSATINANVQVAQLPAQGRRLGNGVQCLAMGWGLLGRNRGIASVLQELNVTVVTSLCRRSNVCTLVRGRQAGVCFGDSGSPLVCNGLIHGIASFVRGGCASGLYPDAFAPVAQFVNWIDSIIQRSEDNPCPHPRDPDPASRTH
Description: as §1
as §2, with “The rate of the substrate decomposition was shown as an average value of 6 repeated reactions. The inhibitory concentration of a test compound relative to the amount of the substrate decomposition in the reaction mixture without a test compound was regarded as an IC₅₀ value. The final concentration of HLE and a synthesized substrate in the reaction mixture were 5.63 nM and 0.2625 mM, respectively.” left out

human cathepsin G (HCG) = biological target: T3, human cathepsin G (HCG) (Homo sapiens, UniProt P08311); assay: HCG inhibitory activity (synthetic substrate, pNA release); format: biochemical; conditions: pH 7.5; HCG 50 nM, substrate 0.5 mM; read-out: IC₅₀ value HCG
T3 construct: purchased Cosmo Bio Inc
T3 sequence (P08311 21-244): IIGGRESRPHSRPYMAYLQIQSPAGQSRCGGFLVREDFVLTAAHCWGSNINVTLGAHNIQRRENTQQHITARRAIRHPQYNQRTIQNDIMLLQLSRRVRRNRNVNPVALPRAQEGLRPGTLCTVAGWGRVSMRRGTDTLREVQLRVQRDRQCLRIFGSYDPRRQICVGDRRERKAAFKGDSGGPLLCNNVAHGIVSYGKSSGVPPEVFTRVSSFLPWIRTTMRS
Description: as §1, §2
a) Enzyme obtaining route HCG was obtained from Cosmo Bio Inc.
The same method as in the measurement of HLE inhibitory activity was used except that a buffer solution (pH 7.5) was used. The final concentration of HCG and synthetic substrate (Funakoshi, L-1010) in a reaction mixture were 50 nM and 0.5 mM, respectively.

[3] = biological target: T4, bovine pancreatic α-chmotrypsin (CYT) (Bos taurus, UniProt P00766); assay: CYT inhibitory activity (synthetic substrate, pNA release); format: biochemical; conditions: pH 8.0; CYT 3.4 nM, substrate 0.273 mM; read-out: IC₅₀ value CYT
T4 construct: bovine pancreatic α-chmotrypsin (CYT); purchased Sigma Co., Ltd
Description: as §1, §2
a) Enzyme obtaining route CYT was obtained from Sigma Co., Ltd.
Substantially the same method as used in the measurement of the HLE inhibitory activity was used except that a buffer solution (pH 8.0) was used. The final concentration of CYT and synthetic substrate (Funakoshi, L-1010) in a reaction mixture were 3.4 nM and 0.273 mM, respectively.

[4] = biological target: T5, bovine pancreatic trypsin (TRY) (Bos taurus, UniProt P00760); assay: TRY inhibitory activity (synthetic substrate, pNA release); format: biochemical; conditions: pH 7.5; TRY 25 nM, substrate Z-Arg-pNA 1.0 mM; read-out: IC₅₀ value TRY
T5 construct: bovine pancreatic trypsin (TRY); purchased Sigma Inc
T5 sequence (P00760 24-246): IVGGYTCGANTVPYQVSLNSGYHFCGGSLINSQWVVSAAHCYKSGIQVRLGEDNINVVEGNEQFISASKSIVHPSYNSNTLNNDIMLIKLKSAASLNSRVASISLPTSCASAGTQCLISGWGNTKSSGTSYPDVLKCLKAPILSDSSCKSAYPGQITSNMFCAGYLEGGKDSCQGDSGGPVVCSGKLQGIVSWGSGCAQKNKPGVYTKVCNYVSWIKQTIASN
Description: as §1
as §2, with “The rate of the substrate decomposition was shown as an average value of 6 repeated reactions. The inhibitory concentration of a test compound relative to the amount of the substrate decomposition in the reaction mixture without a test compound was regarded as an IC₅₀ value. The final concentration of HLE and a synthesized substrate in the reaction mixture were 5.63 nM and 0.2625 mM, respectively.” left out

[5] = tested on: neutrophiles from the human peripheral blood; assay: Human neutrophile chemotaxis suppressing activity (fMLP, chemotaxis chamber); format: cell-based; conditions: 10-⁷M fMLP, one hour at 37°C; for Chemotaxis: experiment without compound regarded as 100
Description: The neutrophile fraction (60% percoal fraction having neutrophile purity of 90% or more) was taken from the human peripheral blood by means of percoal density gradient centrifugation at 2300 rpm for 20 minutes.
An intercell having a pore diameter of 5 µm, containing 8 x 10⁵ of neutrophiles and the compound of the present invention adjusted in various concentrations was placed in each well of a chemotaxis chamber (KURABO), in which has been added 1300 µl of a medium containing 10-⁷M of formylmethionyl-leucyl-phenylalanine (fMLP), which is a neutrophile chemotaxis factor. After incubating for one hour at 37°C in an incubator containing 5% carbon dioxide, the number of cells migrating from the upper side of the intercell membrane into the lower side of the membrane in the chamber was counted by the following method. That is, the lower side surface of the intercell membrane was washed with PBS for 4 times and fixed with methanol and dyed with hematoxylin-eosin solution. The membrane was removed from the intercell and placed on a slide, dried in air, followed by sealing with Canada balsam. The cell number was microscopically counted in 5 visual fields. Taking average number of the five fields, the average was employed as the number of migrating cells. The value subtracting the migrating cell number in a control experiment containing no fMLP from the cell number in an experiment containing no the compound of the present invention was regarded as 100, the chemotaxis suppressing activity was determined as the following formula: Neutrophilic chemotaxis suppressing activity (%) [formula] = 100 - A/B x 100 [formula] = 100 - (C - D)/(E-D) x 100 [formula] Where: • A: chemotaxis measured in the experiment containing the compound of the present invention; • B: chemotaxis measured in the experiment not containing the compound of the present invention • C: the number of migrating cells measured in the experiment containing both the compound of the present invention and fMLP. • D: the number of migrating cells in the experiment containing neither the compound of the present invention nor fMLP. • E: the number of migrating cells in the experiment containing only fMLP.

Cc1cccc2nc([C@@H](NC(=O)OCC34CC5CC(CC(C5)C3)C4)C(C)C)oc(=O)c12 [Compound 6, 2-[1(S)-[[(1-adamantyl)methoxy-carbonyl]amino]-2-methylpropyl]-5-methyl-4H-3,1-benzoxazin-4-one]
IC50 [1]: 210 nM
IC50 [2]: 260 nM
IC50 (human cathepsin G (HCG)): > 25000 nM
IC50 [3]: 1550 nM
IC50 [4]: > 12600 nM

Cc1cccc2nc([C@@H](NC(=O)COC(c3ccccc3)c3ccccc3)C(C)C)oc(=O)c12 [Compound 2, 2-[1(S)-[[(diphenylmethoxy)acetyl]amino]-2-methylpropyl]-5-methyl-4H-3,1-benzoxazin-4-one]
IC50 [1]: 220 nM
IC50 (human cathepsin G (HCG)): > 27400 nM
IC50 [3]: 830 nM
Chemotaxis ([5]; Concentration 0.125 µM): 70.6
Chemotaxis ([5]; Concentration 1.000 µM): 57.4
activity at 0.125 µM ([5]; Homo sapiens, 1 h, Concentration 0.125 µM): 29.4%
activity at 1 µM ([5]; Homo sapiens, 1 h, Concentration 1.000 µM): 42.6%

Cc1cccc2nc([C@@H](NC(=O)COC(c3ccccn3)c3ccccn3)C(C)C)oc(=O)c12 [Compound 4]
IC50 [1]: 550 nM

Cc1cccc2nc([C@@H](NC(=O)CON=C(c3ccccc3)c3ccccn3)C(C)C)oc(=O)c12 [Compound 9, 5-Methyl-2-[2-methyl-1(S)-[[[[[phenyl(2-pyridyl)methylene]amino]oxy]acetyl]amino]propyl]-4H-3,1-benzoxazin-4-one]
IC50 [1]: 550 nM

Cc1cccc2nc([C@@H](NC(=O)CN(c3ccccc3)c3ccccc3)C(C)C)oc(=O)c12 [Compound 7, 2-{1(S)-[(N,N-diphenyl-glycyl)amino]-2-methylpropyl}-5-methyl-4H-3,1-benzoxazin-4-one]
IC50 [1]: 790 nM

Cc1cccc2nc([C@@H](NC(=O)CCC(c3ccccc3)c3ccccc3)C(C)C)oc(=O)c12 [Compound 8, 2-{1(S)-[(4,4-diphenylbutyryl)amino]-2-methylpropyl}-5-methyl-4H-3,1-benzoxazin-4-one]
IC50 [1]: 400 nM
